Patent US8697874B2, “Heterocyclic compound and use thereof” (Takeda Pharmaceutical Company Limited, priority 2008, dated 2014)

Key:
BRAF (V600E) kinase = target: T1, BRAF (V600E) kinase (Homo sapiens, UniProt P15056, V600E); experiment: Determination of BRAF (V600E) kinase inhibitory activity; type: biochemical; settings: compound 1.0 μm; substrate GSTP1-MEK1 (K96R), [γ-32P]ATP
T1 construct: area encoding the BRAF kinase domain region, so that the protein contains an N-terminal Flag; made in house; host or cells: SF-21 insect cells infected with recombinant baculovirus BAC-V600E
Protocol: Determination of BRAF (V600E) Kinase Inhibitory Activity
A test compound (2.5 μL) dissolved in dimethyl sulfoxide (DMSO) was added to 37.5 μL of a reaction solution (25 mM HEPES (pH 7.5), 10 mM magnesium acetate, 1 mM dithiothreitol) containing 30 ng of BRAF (V600E) enzyme and 250 ng of recombinant protein GSTP1-MEK1 (K96R) prepared using FreeStyle 293 expression system (Invitrogen), and the mixture was incubated at room temperature for 10 min. 10 μL of ATP solution (2.5 μM ATP, 0.1 μCi [γ-^32P]ATP) was added to the obtained mixture, and the mixture was reacted at room temperature for 20 min. The reaction was quenched by adding 50 μL of ice-cooled 20% trichloroacetic acid (Wako Pure Chemical Industries, Ltd.) to the reaction solution. The reaction solution was allowed to stand at 4° C. for 30 min., and the acid-precipitable fraction was transferred to GF/C filter plate (Millipore Corporation) using cell harvester (PerkinElmer). The plate was dried at 45° C. for 60 min., and 40 μL of MicroScinti 0 (PerkinElmer) was added thereto. The radioactivity was measured using TopCount (PerkinElmer). The kinase inhibitory rate (%) of the test compound was calculated by the following formula: Inhibitory rate (%)=(1−(count of test compound−blank)÷(control−blank))×100
The count of the solution reacted without addition of the compound was used as a “control”, and the count of the solution without the compound and enzyme was used as a “blank”.

[1] = system: MEK1/2 phosphorylation in human colorectal cancer cell HT-29; experiment: Colorectal cancer cell HT-29 intracellular MEK phosphorylation inhibitory activity in vitro; type: cell-based; settings: HT-29 cells; for IC50: 2 hrs treatment, phosphorylated MEK1/2 by Western blot; for inhibition at 0.5 µM: MEK1/2 protein phosphorylation, compound 0.5 μM, 2 hrs, read-out: inhibitory rate (%) at 0.5 μM
Protocol: Colorectal Cancer Cell HT-29 Intracellular MEK Phosphorylation Inhibitory Activity In Vitro
500 μL of a cell suspension of human colorectal cancer cell HT-29 (purchased from American Type Culture Collection (ATCC)) was plated in a 48-well plate (100,000 cells/well), and the cells were cultured overnight at 37° C. in the presence of 5% CO2, treated with a test compound (250 μL/well) diluted in 3-fold dilution series and cultured for 2 hrs. After 2 hrs, the culture medium containing the test compound was removed, and the cells were lysed with SDS sample buffer (100 μL/well) and heated at 95° C. for 5 min. Thereafter, the cells lysed with SDS sample buffer were applied to SDS-PAGE, and the protein was transferred onto Sequi-Blot™ PVDF Membrane (Bio-Rad) by the Western blot method. The PDVF membrane was blocked with a Block-Ace solution (Snow Brand Milk Products Co., Ltd) dissolved in phosphate buffered saline (MP Biochemicals) to 5% W/V, and reacted overnight with anti-phosphorylated MEK1/2 (Ser217/221) (Cell signaling) diluted 1000-fold with phosphate buffered saline containing 0.4% Block-Ace. The membrane was washed with phosphate buffered saline containing 0.1% Tween 20 (Wako Pure Chemical Industries, Ltd.), and reacted at room temperature for 1 hr with HRP labeled rabbit IgG polyclonal antibody (Cell signaling) diluted 1000-fold with phosphate buffered saline containing 0.4% Block-Ace. The membrane was washed in the same manner as above, chemical luminescence of a phosphorylated MEK1/2 protein labeled with the antibody, which was caused by ECL-plus Detection Reagent (Amersham bioscience), was detected by Luminescent Image Analyzer LAS-1000 (FUJIFILM Corporation). Taking the luminescence of the control group free of the test compound as 100%, the concentration (IC50 value) of the compound necessary for inhibiting the residual luminescence to 50% of the control group was calculated. The results are shown in Table 3-A. In addition, MEK1/2 protein phosphorylation inhibitory rate (%) of the test compound at compound concentration 0.5 μM was calculated by the following formula. The results are shown in Table 3-B. Inhibitory rate (%)=(1−(luminescence of test compound−blank)÷(luminescence of control group−blank))×100

[2] = system: human colorectal cancer cell HT-29; experiment: Colorectal cancer cell HT-29 growth suppressive activity in vitro; type: cell-based; settings: 72 h, HT-29 cells, SRB staining; for IC50: 3 days culture; for inhibition at 5 µM: cell proliferation, compound 5.0 μM, 3 days, read-out: inhibitory rate (%) at 5.0 μM
Protocol: Colorectal Cancer Cell HT-29 Growth Suppressive Activity in Vitro
100 μL of a cell suspension (3,000 cells/well) of human colorectal cancer cell HT-29 (purchased from ATCC) was plated in a 96-well plate, and the cells were cultured at 37° C. in a 5% CO2 gas incubator. The next day, 100 μL of each test compound solution diluted in 2-fold serial dilution, diluted from maximum concentration 20 μM, was added, and the cells were cultured for 3 days. As for Example 44, 100 μl of each test compound solution (4-fold serially diluted, diluted from maximum concentration 20 μM) was added, and the cells were cultured for 3 days. The culture medium containing the test compound was removed, and the cells were washed with phosphate buffered saline (PBS). A 50% trichloroacetic acid solution was added to the final concentration of 10% (v/v), and the mixture was stood overnight at 4° C., whereby the cells were fixed to the plate. Then, a dye SRB 0.4% (w/v) solution (dissolved in 1% acetic acid) was added at 50 μl/well, whereby the cell protein was fixed and stained (Skehan et al., Journal Of National Cancer Institute, vol. 82, pp. 1107-1112, 1990). The cells were washed 3 times with 1% acetic acid solution (200 μL/well), and 100 μL of an extract (10 mM Tris buffer) was added to extract the dye. The absorbance at an absorption wavelength 550 nm was measured, and cell amount was measured as a protein amount. Taking the protein amount of the control group free of the test compound solution as 100%, the proportion of the residual protein amount of each treatment group was determined and the concentration of the compound necessary for suppressing the residual cell amount to 50% of the control (IC50 value) was calculated. The results are shown in Table 4-A. In addition, cell proliferation inhibitory rate (%) of the test compound at compound concentration 5.0 μM was calculated by the following formula. The results are shown in Table 4-B. Inhibitory rate (%)=(1−(absorbance of test compound−blank)÷(absorbance of control group−blank))×100

T1 sequence (P15056 457-717 V600E limits assumed): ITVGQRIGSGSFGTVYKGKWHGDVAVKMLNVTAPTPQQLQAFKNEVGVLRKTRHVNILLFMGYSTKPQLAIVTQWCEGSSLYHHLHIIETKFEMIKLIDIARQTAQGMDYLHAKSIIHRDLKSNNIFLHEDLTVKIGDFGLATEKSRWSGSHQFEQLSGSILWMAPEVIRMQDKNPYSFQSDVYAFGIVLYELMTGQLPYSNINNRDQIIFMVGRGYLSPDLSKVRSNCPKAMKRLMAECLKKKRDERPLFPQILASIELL

CN(c1ccc(F)c(NC(=O)Nc2ccc(C(F)(F)F)cc2)c1)c1ccc2nc(NC(=O)C3CC3)sc2n1 [Example 1, N-(5-{[4-fluoro-3-({[4-(trifluoromethyl)phenyl]carbamoyl}amino)phenyl](methyl)amino}[1,3]thiazolo[5,4-b]pyridin-2-yl)cyclopropanecarboxamide]
inhibitory rate (%) at 1.0 μm (BRAF (V600E) kinase): 98%

CN(c1ccc(F)c(NC(=O)Nc2ccc(C(C)(C)C)cc2)c1)c1ccc2nc(NC(=O)C3CC3)sc2n1 [Example 3, N-{5-[(3-{[(4-tert-butylphenyl)carbamoyl]amino-}-4-fluorophenyl)(methyl)amino][1,3]thiazolo[5,4-b]pyridin-2-yl}cyclopropanecarboxamide]
IC50 [1]: < 300 nM | inhibition at 0.5 µM [1]: 94%

CN(c1cccc(NC(=O)Nc2ccc(OC(F)(F)F)cc2)c1)c1ccc2nc(NC(=O)C3CC3)sc2n1 [Example 9, N-(5-{methyl[3-({[4-(trifluoromethoxy)phenyl]carbamoyl}amino)phenyl]amino}[1,3]thiazolo[5,4-b]pyridin-2-yl)cyclopropanecarboxamide]
IC50 [2]: < 500 nM | inhibition at 5 µM [2]: 100%

CN(c1cccc(NC(=O)Nc2ccc(Cl)c(C(F)(F)F)c2)c1)c1ccc2nc(NC(=O)C3CC3)sc2n1 [Example 11, N-(5-{[3-({[4-chloro-3-(trifluoromethyl)phenyl]carbamoyl}amino)phenyl](methyl)amino}[1,3]thiazolo[5,4-b]pyridin-2-yl)cyclopropanecarboxamide]
inhibitory rate (%) at 1.0 μm (BRAF (V600E) kinase): 99%

O=C(Nc1ccc(Cl)c(C(F)(F)F)c1)Nc1cc(Nc2ccc3nc(NC(=O)C4CC4)sc3n2)ccc1F [Example 13, N-(5-{[3-({[4-chloro-3-(trifluoromethyl)phenyl]carbamoyl}amino)-4-fluorophenyl]amino}[1,3]thiazolo[5,4-b]pyridin-2-yl)cyclopropanecarboxamide]
IC50 [1]: < 300 nM | inhibition at 0.5 µM [1]: 98%

O=C(Cc1ccccc1C(F)(F)F)Nc1cc(Oc2ccc3nc(NC(=O)C4CC4)sc3n2)ccc1F [Example 19, N-{5-[4-fluoro-3-({[2-(trifluoromethyl)phenyl]acetyl}amino)phenoxy][1,3]thiazolo[5,4-b]pyridin-2-yl}cyclopropanecarboxamide]
inhibitory rate (%) at 1.0 μm (BRAF (V600E) kinase): 100%

O=C(Cc1ccc(C(F)(F)F)cc1)Nc1cc(Oc2ccc3nc(NC(=O)C4CC4)sc3n2)ccc1F [Example 21, N-{5-[4-fluoro-3-[{(4-(trifluoromethyl)phenyl]acetyl}amino)phenoxy][1,3]thiazolo[5,4-b]pyridin-2-yl}cyclopropanecarboxamide]
inhibitory rate (%) at 1.0 μm (BRAF (V600E) kinase): 98%

O=C(Cc1cccc(C(F)(F)F)c1)Nc1cc(Oc2ccc3nc(NC(=O)C4CC4)sc3n2)ccc1F [Example 22, N-{5-[4-fluoro-3-({[3-(trifluoromethyl)phenyl]acetyl}amino)phenoxy][1,3]thiazolo[5,4-b]pyridin-2-yl}cyclopropanecarboxamide]
inhibition at 0.5 µM [1]: 88%

O=C(Nc1cccc(C(F)(F)F)c1)Nc1cc(Oc2ccc3nc(NC(=O)C4CC4)sc3n2)ccc1F [Example 23, N-{5-[4-fluoro-3-({[3-(trifluoromethyl)phenyl]carbamoyl}amino)phenoxy][1,3]thiazolo[5,4-b]pyridin-2-yl}cyclopropanecarboxamide]
IC50 [1]: < 300 nM | inhibition at 0.5 µM [1]: 88%

O=C(Nc1ccc(C(F)(F)F)nc1)Nc1cc(Oc2ccc3nc(NC(=O)C4CC4)sc3n2)ccc1F [Example 29, N-{5-[4-fluoro-3-({[6-(trifluoromethyl)pyridin-3-yl]carbamoyl}amino)phenoxy][1,3]thiazolo[5,4-b]pyridin-2-yl}cyclopropanecarboxamide]
IC50 [2]: < 500 nM | inhibition at 5 µM [2]: 74%

Cc1ccc(NC(=O)Cc2ccsc2)cc1Oc1ccc2nc(NC(=O)C3CC3)sc2n1 [Example 44, N-(5-{2-methyl-5-[(thiophen-3-ylacetyl)amino]-phenoxy} [1,3]thia-zolo[5,4-b]pyridin-2-yl)cyclo-propanecarboxamide]
IC50 [2]: < 500 nM | inhibition at 5 µM [2]: 98%
